Test results taken from patent publication US12679860B2, “C-terminal HSP90 inhibitors” (UNIVERSITY OF KANSAS, priority 2012, dated 2026).

Tests used:
[1] = test system: embryonic dorsal root ganglion (DRG) sensory neuron cultures; assay: Glucotoxicity assay: cell viability (calcein AM) of DRG sensory neurons under glucose-induced toxicity; format: cell-based, Sprague Dawley rat; conditions: for viability at 1 µM / EC50: Rattus norvegicus, Neuron; for viability at 1 µM: glucose + DMSO was 54% ± 2; for EC50: 0.1-1000 nM novologue overnight, then 4 hrs of hyperglycemia, mean±SEM (n=3-8), read-out: EC50 for protection against glucose-induced toxicity
Procedure: DRG sensory neurons were incubated in the absence or presence of 0.1-1000 nM of the indicated novologue overnight and then subjected to 4 hrs of hyperglycemia.
The ganglia were sedimented at 1,000×g for 5 min, resuspended in growth media [phenol red free Neurobasal medium (Gibco, Grand Island, NY) containing 25 mM glucose, 1X B-27 additive, 50 ng/ml NGF (Harlan Bioscience, Indianapolis, IN), 4 mM glutamine, 100 U/mL penicillin and 100 μg/mL streptomycin] and triturated with a fire-polished glass pipette. The cells were cultured on collagen-coated (0.1 mg/mL collagen followed by overnight air drying in a laminar flow hood) black-walled 96-well plates (Corning Incorporated Corning, NY) at a seeding density of 2-3×10^4 cells per well. DRG neurons were re-fed the next day with fresh growth media containing 40 μM fluorodeoxyuridine and 10 μM cytosine β-D-arabinoside (both from Sigma Aldrich, St. Louis, MO) for 2 days to remove proliferating cells. Experiments were performed on DRG neurons on the third day in culture after placing the cells in fresh growth medium. […]
DRG neurons were incubated overnight with the test compounds in the presence of Neurobasal medium, 50 ng/ml NGF and antibiotics only. In order to monitor the efficiency of the compounds in protecting DRG neurons against glucotoxicity, Calcein AM (Invitrogen, Carlsbad, CA) was utilized to measure cell viability. Hydrolysis of calcein AM to a fluorescent product can only occur in live cells. Excess glucose was added to the cultures for 4 hrs and cell viability was measured by incubating the cells with 2 μM calcein AM for 30 min in the dark at 37° C. Fluorescence was then measured using a plate reader with excitation and emission wavelengths set to 485 nm and 520 nm, respectively. The arbitrary fluorescence readings were normalized to the total amount of protein from each respective well of the neuronal cultures. The protein concentrations in each well were determined using the DC protein assay (Bio-Rad). Significant differences in the efficacy of the novologues for increasing cell viability were determined using a Kruskal-Wallis non-parametric ANOVA and Dunn's post-test.

Hsp70 = assay: Immunoblot analysis of induction of Hsp70 in DRG sensory neurons; format: cell-based, Sprague Dawley rat; conditions: 24 hours incubation, then 4 hours of glucotoxic stress; Hsp70 normalized to β-actin
Procedure: DRG sensory neurons were incubated in the presence of DMSO (Cntrl) or 10-1000 nM of the indicated novologue overnight and then subjected to 4 hrs of hyperglycemia. The neurons were harvested and Hsp70 and β-actin levels were determined by immunoblot analysis. Band intensity was quantified using Image J, Hsp70 expression was normalized to the level of β-actin.
Since it was previously shown that the cytoprotective activity manifested by KU-32 requires Hsp70, the ability of 11b and 11n to induce Hsp70 was determined relative to KU-32. Increasing concentrations of KU-32, 11n, and 11b were incubated with DRG sensory neurons for 24 hours before the cells were subjected to 4 hours of glucotoxic stress. Hsp70 levels were examined by performing immunoblot analysis with the cellular lysates (FIG. 5). 11n and 11b induced Hsp70 levels at similar concentrations (10 nM) as those needed for neuroprotection.
DRG from embryonic day 15-18 Sprague Dawley rat pups were harvested into Leibovitz's L15 medium (L15) and dissociated with 0.25% trypsin for 30 min at 37° C. […]

[2] = Table 2 cyclohexene analogues, 1 μM novologue + 20 mM excess glucose
[3] = Table 1, 1 μM of each novologue + 20 mM excess glucose
[4] = 1 μM novologue + 20 mM excess glucose

| SMILES | viability at 1 µM [1, 3] [%] | protection against glucose-induced toxicity (in words) [1, 4] | also measured |
| --- | --- | --- | --- |
| CO[C@@H]1[C@@H](O)[C@@H](O)[C@H](Oc2ccc(C3CC=CCC3NC(C)=O)c(-c3cccc(F)c3)c2)OC1(C)C (mixture of isomers) [20a, N-(4′-(((3R,4S,5R)-3,4-dihydroxy-5-methoxy-6,6-dimethyltetrahydro-2H-pyran-2-yl)oxy)-3″-fluoro-1,2,3,6-tetrahydro-[1,1′: 2′,1″-terphenyl]-2-yl)acetamide] |  |  | viability at 1 µM [1, 2]: 78% |
| CO[C@@H]1[C@@H](O)[C@@H](O)[C@H](Oc2ccc(C3CC=CCC3NC(C)=O)c(-c3cccc(C(F)(F)F)c3)c2)OC1(C)C (mixture of isomers) [20b, N-(4′-(((3R,4S,5R)-3,4-dihydroxy-5-methoxy-6,6-dimethyltetrahydro-2H-pyran-2-yl)oxy)-3″-(trifluoromethyl)-1,2,3,6-tetrahydro-[1,1′: 2′,1″-terphenyl]-2-yl) acetamide] |  |  | viability at 1 µM [1, 2]: 69% |
| CO[C@@H]1[C@@H](O)[C@@H](O)C(Oc2ccc(CCNC(C)=O)c(-c3ccccc3)c2)OC1(C)C (stereo partly drawn) [11a, N-(2-(5-(((3R,4S,5R)-3,4-dihydroxy-5-methoxy-6,6-dimethyltetrahydro-2H-pyran-2-yl)oxy)-[1,1′-biphenyl]-2-yl)ethyl)acetamide] | 76 |  |  |
| CO[C@@H]1[C@@H](O)[C@@H](O)C(Oc2ccc(CCNC(C)=O)c(-c3cccc(F)c3)c2)OC1(C)C (stereo partly drawn) [11b, N-(2-(5-(((3R,4S,5R)-3,4-dihydroxy-5-methoxy-6,6-dimethyltetrahydro-2H-pyran-2-yl)oxy)-3′-fluoro-[1,1′-biphenyl]-2-yl)ethyl)acetamide] | 95 | showed significant protection against glucotoxicity | EC50 [1]: 13 ± 3.6 nM; concentration at which Hsp70 levels were induced (Hsp70): 10 nM |
| CO[C@@H]1[C@@H](O)[C@@H](O)C(Oc2ccc(CCNC(C)=O)c(-c3ccc(F)cc3)c2)OC1(C)C (stereo partly drawn) [11c, N-(2-(5-(((3R,4S,5R)-3,4-dihydroxy-5-methoxy-6,6-dimethyltetrahydro-2H-pyran-2-yl)oxy)-4′-fluoro-[1,1′-biphenyl]-2-yl)ethyl)acetamide] | 75 | showed significant protection against glucose-induced cell death |  |
| CO[C@@H]1[C@@H](O)[C@@H](O)C(Oc2ccc(CCNC(C)=O)c(-c3ccccc3Cl)c2)OC1(C)C (stereo partly drawn) [11d, N-(2-(2′-chloro-5-(((3R,4S,5R)-3,4-dihydroxy-5-methoxy-6,6-dimethyltetrahydro-2H-pyran-2-yl)oxy)-[1,1′-biphenyl]-2-yl)ethyl)acetamide] | 71 | showed significant protection against glucose-induced cell death |  |
| CO[C@@H]1[C@@H](O)[C@@H](O)C(Oc2ccc(CCNC(C)=O)c(-c3cccc(Cl)c3)c2)OC1(C)C (stereo partly drawn) [11e, N-(2-(3′-chloro-5-(((3R,4S,5R)-3,4-dihydroxy-5-methoxy-6,6-dimethyltetrahydro-2H-pyran-2-yl)oxy)-[1,1′-biphenyl]-2-yl)ethyl)acetamide] | 90 | showed significant protection against glucotoxicity |  |
| CO[C@@H]1[C@@H](O)[C@@H](O)C(Oc2ccc(CCNC(C)=O)c(-c3cccc(C(F)(F)F)c3)c2)OC1(C)C (stereo partly drawn) [11f, N-(2-(5-(((3R,4S,5R)-3,4-dihydroxy-5-methoxy-6,6-dimethyltetrahydro-2H-pyran-2-yl)oxy)-3′-(trifluoromethyl)-[1,1′-biphenyl]-2-yl)ethyl)acetamide] | 83 | showed significant protection against glucotoxicity | EC50 [1]: 188 ± 43.5 nM |
| CO[C@@H]1[C@@H](O)[C@@H](O)C(Oc2ccc(CCNC(C)=O)c(-c3ccc(C(F)(F)F)cc3)c2)OC1(C)C (stereo partly drawn) [11g, N-(2-(5-(((3R,4S,5R)-3,4-dihydroxy-5-methoxy-6,6-dimethyltetrahydro-2H-pyran-2-yl)oxy)-4′-(trifluoromethyl)-[1,1′-biphenyl]-2-yl)ethyl)acetamide] | 74 | showed significant protection against glucose-induced cell death |  |
| CO[C@@H]1[C@@H](O)[C@@H](O)C(Oc2ccc(CCNC(C)=O)c(-c3ccccc3SC)c2)OC1(C)C (stereo partly drawn) [11h, N-(2-(5-(((3R,4S,5R)-3,4-dihydroxy-5-methoxy-6,6-dimethyltetrahydro-2H-pyran-2-yl)oxy)-2′-(methylthio)-[1,1′-biphenyl]-2-yl)ethyl)acetamide] | 83 |  | EC50 [1]: 384 ± 108 nM; EC50 fold greater than KU-32 ([1]; protection against glucose-induced toxicity): approximately 1.6 fold |
| COc1ccccc1-c1cc(OC2OC(C)(C)[C@H](OC)[C@@H](O)[C@H]2O)ccc1CCNC(C)=O (stereo partly drawn) [11i, N-(2-(5-(((3R,4S,5R)-3,4-dihydroxy-5-methoxy-6,6-dimethyltetrahydro-2H-pyran-2-yl)oxy)-2′-methoxy-[1,1′-biphenyl]-2-yl)ethyl)acetamide] | 92 |  |  |
| COc1cccc(-c2cc(OC3OC(C)(C)[C@H](OC)[C@@H](O)[C@H]3O)ccc2CCNC(C)=O)c1 (stereo partly drawn) [11j, N-(2-(5-(((3R,4S,5R)-3,4-dihydroxy-5-methoxy-6,6-dimethyltetrahydro-2H-pyran-2-yl)oxy)-3′-methoxy-[1,1′-biphenyl]-2-yl)ethyl)acetamide] | 78 |  |  |
| CO[C@@H]1[C@@H](O)[C@@H](O)C(Oc2ccc(CCNC(C)=O)c(-c3cccc(C)c3)c2)OC1(C)C (stereo partly drawn) [11k, N-(2-(5-(((3R,4S,5R)-3,4-dihydroxy-5-methoxy-6,6-dimethyltetrahydro-2H-pyran-2-yl)oxy)-3′-methyl-[1,1′-biphenyl]-2-yl)ethyl)acetamide] | 82 |  |  |
| CO[C@@H]1[C@@H](O)[C@@H](O)C(Oc2ccc(CCNC(C)=O)c(-c3cccc(CN4CCOCC4)c3)c2)OC1(C)C (stereo partly drawn) [11l, N-(2-(5-(((3R,4S,5R)-3,4-dihydroxy-5-methoxy-6,6-dimethyltetrahydro-2H-pyran-2-yl)oxy)-3′-(morpholinomethyl)-[1,1′-biphenyl]-2-yl)ethyl)acetamide] | 83 |  |  |
| CO[C@@H]1[C@@H](O)[C@@H](O)C(Oc2ccc(CCNC(C)=O)c(-c3ccc(O)cc3)c2)OC1(C)C (stereo partly drawn) [11m, N-(2-(5-(((3R,4S,5R)-3,4-dihydroxy-5-methoxy-6,6-dimethyltetrahydro-2H-pyran-2-yl)oxy)-4′-hydroxy-[1,1′-biphenyl]-2-yl)ethyl)acetamide] | 67 |  |  |
| CO[C@@H]1[C@@H](O)[C@@H](O)C(Oc2ccc(CCNC(C)=O)c(-c3cccnc3)c2)OC1(C)C (stereo partly drawn) [11o, N-(4-(((3R,4S,5R)-3,4-dihydroxy-5-methoxy-6,6-dimethyltetrahydro-2H-pyran-2-yl)oxy)-2-(pyridin-3-yl)phenethyl)acetamide] | 61 | unable to protect against glucose-induce toxicity |  |
| CO[C@@H]1[C@@H](O)[C@@H](O)C(Oc2ccc(CCNC(C)=O)c(-c3ccncc3)c2)OC1(C)C (stereo partly drawn) [11p, N-(4-(((3R,4S,5R)-3,4-dihydroxy-5-methoxy-6,6-dimethyltetrahydro-2H-pyran-2-yl)oxy)-2-(pyridin-4-yl)phenethyl)acetamide] | 81 |  |  |
